In patent US8097581B2, “Anti-wrinkle cosmetic composition” (Grant Industries Inc., priority 2007, dated 2012):

How the values were obtained:
[1] = tested on: human dermal fibroblast cultures; test: Stimulation of mitochondrial metabolic activity (MTT method); format: cell-based; settings: 10 ng/ml; positive control
Excerpt: In order to maintain youthful appearance, skin needs to constantly replace and regenerate its damaged components. This is predominantly the role of dermal fibroblasts. How well this job is done depends on the metabolic vigor of these cells as damaged or dormant fibroblasts will not be able to actively produce the replacement parts for the skin. This is why the stimulation of their metabolic activity is viewed as beneficial to the skin, not unlike the stimulation of metabolic activity is beneficial to the muscle. We tested the effect of RD1071 on the metabolic activity of mitochondria of human dermal fibroblast cultures using MTT method (Berridge et al., 1993). Mitochondria are cellular powerhouses producing energy (ATP) for the entire cell. […] Thus, example 1 (RD1071) increases cellular metabolism in a dose-dependant manner. The positive control in this experiment is use of basic fibroblast growth factor, bFGF at 10 ng/ml concentration.

[2] = tested on: fibroblast cultures; test: Total protein production stimulation (method of Skehan et al.); format: cell-based, human; settings: 10 ng/ml; positive control
Experimental: The stimulation of metabolic activity by RD1071 also translated into an increase of total protein content in fibroblast cultures. […] For example, UV radiation and aging are associated with the increased proteolytic activity in the skin. The stimulation of total protein production could counterbalance the loss of proteins caused by this increased proteolytic activity. Total protein was measured using the method of Skehan et al. (1990). […] The basic fibroblast growth factor, bFGF, was again used as a positive control.

bFGF: basic fibroblast growth factor, positive control at 10 ng/ml
Mitochondrial Metabolism % Control [1]: 174 % Control
Protein Stimulation % Control [2]: 118 % Control
